# The supplement of paper PMC10307832
# How the values were obtained:
# Test in all cases: relative viability (nuclei count vs DMSO), 5 days (fraction); higher = more cells survive
# [1] = tested on: NCI-H596
# How it was run: (§1)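 After 5 days of treatment, lung cancer cells in 1536-well plates were fixed and stained in a single step (final 0.05% Triton X-100, 1% formaldehyde, 1 ug/ml Hoechst) and their nuclei counted on 4× images. Treatment had been applied by pin tool the day after seeding as one drug alone or as a fixed anchor-drug dose with five library-drug doses (not always all listed) in √10 steps. Relative viability is the nuclei count of treated wells divided by that of vehicle wells, and values are medians of duplicate plates.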
# [2] = tested on: NCI-H2087
# How it was run: as §1
# [3] = tested on: NCI-H650
# How it was run: as §1
# [4] = tested on: LCLC-97TM1
# How it was run: as §1
# [5] = tested on: NCI-H1651
# How it was run: as §1
# [6] = tested on: PC-3 [JPC-3]
# How it was run: as §1
# [7] = tested on: LC-2-ad
# How it was run: as §1
# [8] = tested on: ChaGo-K-1
# How it was run: as §1
# [9] = tested on: LU99A
# How it was run: as §1
# [10] = tested on: LK-2
# How it was run: as §1
# [11] = tested on: NCI-H2342
# How it was run: as §1
# [12] = tested on: NCI-H1944
# How it was run: as §1
# [13] = tested on: SK-MES-1
# How it was run: as §1
# [14] = tested on: HCC-78
# How it was run: as §1
# [15] = tested on: BEN
# How it was run: as §1
# [16] = tested on: NCI-H1355
# How it was run: as §1
# [17] = tested on: NCI-H661
# How it was run: as §1
# [18] = tested on: NCI-H1666
# How it was run: as §1
# [19] = tested on: NCI-H838
# How it was run: as §1
# [20] = tested on: LXF-289
# How it was run: as §1
# [21] = tested on: NCI-H1975
# How it was run: as §1
# [22] = tested on: NCI-H358
# How it was run: as §1
smiles,measurement,setting,value
COc1nc(C)cnc1NS(=O)(=O)c1cccnc1-c1ccc(-c2nnco2)cc1 [Zibotentan] + N=C(N)NC(=N)NCCc1ccccc1 [Phenformin] (partner 250 µM),relative viability,[1]; first compound 0.08 µM,0.842
same,relative viability,[1]; first compound 0.253 µM,0.786
same,relative viability,[1]; first compound 0.8 µM,0.794
same,relative viability,[1]; first compound 2.53 µM,0.805
same,relative viability,[2]; first compound 0.08 µM,0.423
same,relative viability,[2]; first compound 0.253 µM,0.428
same,relative viability,[2]; first compound 0.8 µM,0.54
same,relative viability,[2]; first compound 2.53 µM,0.486
same,relative viability,[3]; first compound 0.08 µM,0.445
same,relative viability,[3]; first compound 0.253 µM,0.389
same,relative viability,[3]; first compound 0.8 µM,0.508
same,relative viability,[3]; first compound 2.53 µM,0.461
same,relative viability,[4]; first compound 0.08 µM,0.457
same,relative viability,[4]; first compound 0.253 µM,0.449
same,relative viability,[4]; first compound 0.8 µM,0.464
same,relative viability,[4]; first compound 2.53 µM,0.465
same,relative viability,[5]; first compound 0.08 µM,0.38
same,relative viability,[5]; first compound 0.253 µM,0.264
same,relative viability,[5]; first compound 0.8 µM,0.294
same,relative viability,[5]; first compound 2.53 µM,0.339
same,relative viability,[6]; first compound 0.08 µM,0.459
same,relative viability,[6]; first compound 0.253 µM,0.466
same,relative viability,[6]; first compound 0.8 µM,0.474
same,relative viability,[6]; first compound 2.53 µM,0.499
same,relative viability,[7]; first compound 0.08 µM,0.564
same,relative viability,[7]; first compound 0.8 µM,0.689
same,relative viability,[7]; first compound 2.53 µM,0.619
same,relative viability,[8]; first compound 0.08 µM,0.563
same,relative viability,[8]; first compound 0.253 µM,0.42
same,relative viability,[8]; first compound 0.8 µM,0.469
same,relative viability,[8]; first compound 2.53 µM,0.543
same,relative viability,[9]; first compound 0.08 µM,0.922
same,relative viability,[9]; first compound 0.253 µM,0.853
same,relative viability,[9]; first compound 0.8 µM,0.795
same,relative viability,[9]; first compound 2.53 µM,0.897
same,relative viability,[10]; first compound 0.08 µM,0.354
same,relative viability,[10]; first compound 0.253 µM,0.403
same,relative viability,[10]; first compound 0.8 µM,0.467
same,relative viability,[10]; first compound 2.53 µM,0.59
same,relative viability,[11]; first compound 0.08 µM,0.782
same,relative viability,[11]; first compound 0.253 µM,0.595
same,relative viability,[11]; first compound 0.8 µM,0.603
same,relative viability,[11]; first compound 2.53 µM,0.559
same,relative viability,[12]; first compound 0.08 µM,0.226
same,relative viability,[12]; first compound 0.253 µM,0.181
same,relative viability,[12]; first compound 0.8 µM,0.188
same,relative viability,[12]; first compound 2.53 µM,0.202
same,relative viability,[13]; first compound 0.08 µM,0.714
same,relative viability,[13]; first compound 0.253 µM,0.612
same,relative viability,[13]; first compound 0.8 µM,0.678
same,relative viability,[13]; first compound 2.53 µM,0.692
same,relative viability,[14]; first compound 0.08 µM,0.778
same,relative viability,[14]; first compound 0.253 µM,0.598
same,relative viability,[14]; first compound 0.8 µM,0.581
same,relative viability,[14]; first compound 2.53 µM,0.59
same,relative viability,[15]; first compound 0.08 µM,0.278
same,relative viability,[15]; first compound 0.253 µM,0.261
same,relative viability,[15]; first compound 0.8 µM,0.241
same,relative viability,[15]; first compound 2.53 µM,0.264
same,relative viability,[16]; first compound 0.08 µM,0.465
same,relative viability,[16]; first compound 0.253 µM,0.414
same,relative viability,[16]; first compound 0.8 µM,0.449
same,relative viability,[16]; first compound 2.53 µM,0.491
same,relative viability,[17]; first compound 0.08 µM,0.267
same,relative viability,[17]; first compound 0.253 µM,0.252
same,relative viability,[17]; first compound 0.8 µM,0.281
same,relative viability,[17]; first compound 2.53 µM,0.296
same,relative viability,[18]; first compound 0.08 µM,0.515
same,relative viability,[18]; first compound 0.253 µM,0.54
same,relative viability,[18]; first compound 0.8 µM,0.596
same,relative viability,[18]; first compound 2.53 µM,0.559
same,relative viability,[19]; first compound 0.08 µM,0.586
same,relative viability,[19]; first compound 0.253 µM,0.586
same,relative viability,[19]; first compound 0.8 µM,0.55
same,relative viability,[19]; first compound 2.53 µM,0.567
same,relative viability,[20]; first compound 0.08 µM,0.533
same,relative viability,[20]; first compound 0.253 µM,0.489
same,relative viability,[20]; first compound 0.8 µM,0.571
same,relative viability,[20]; first compound 2.53 µM,0.543
same,relative viability,[21]; first compound 0.08 µM,0.428
same,relative viability,[21]; first compound 0.253 µM,0.398
same,relative viability,[21]; first compound 0.8 µM,0.419
same,relative viability,[21]; first compound 2.53 µM,0.413
same,relative viability,[22]; first compound 0.08 µM,0.288
same,relative viability,[22]; first compound 0.253 µM,0.134
same,relative viability,[22]; first compound 0.8 µM,0.328
same,relative viability,[22]; first compound 2.53 µM,0.345
